Source: paper PMC9519446, “Discovery of an Orally Active Benzoxaborole Prodrug Effective in the Treatment of Chagas Disease in Non-human Primates” (Nature microbiology, 2022)
Several values for one entry are separate records, joined by “and”; a condition that tells them apart may be missing. Equal values may be shown once.

Experiment: NHP health screening: serum chemistry
Format: in vivo, rhesus macaques (Macaca mulatta)
[1] = End of study bleed, Mean of treated F animals
[2] = End of study bleed, individual treated animals
[3] = Mid-dosing bleed, Mean of treated females
[4] = Mid-dosing bleed, treated animals, individual values

Method: Under light-anesthesia/sedation, peripheral blood samples were collected from each animal prior to treatment and at 7 time points following. Blood analysis (CBC and serum chemistry assays) and physical exams to evaluate the health of the study animals were performed on each animal prior to the beginning of the study and also at three time points during the treatment protocol (see Supplementary data).

SMILES: Cc1c(C(=O)N[C@H](C(=O)OCC2CCOCC2)C(C)C)ccc2c1B(O)OC2 [AN15368]
- Agap [1]: 15 Meq/L
- Alb [1]: 3.916 G/Dl
- Alp [1]: 92.2632 Iu/L
- Alt [1]: 53.7368 Iu/L
- Ast [1]: 63.5789 Iu/L
- Bun [1]: 17.7895 Mg/Dl
- Ca [1]: 9.232 Mg/Dl
- Chol [1]: 138.105 mg/dL
- Ck [1]: 2260.42 Iu/L
- Cl [1]: 109.526 Meq/L
- Crea [1]: 0.7289 Mg/Dl
- Fe [1]: 111.895 µg/dL
- Ggt [1]: 45 Iu/L
- Glob [1]: 2.684 G/Dl
- Gluc [1]: 62.2105 Mg/Dl
- K [1]: 3.584 Meq/L
- Ldh [1]: 581.684 Iu/L
- Na [1]: 147.474 Meq/L
- Osmo [1]: 284.105 Mosm/Kg
- Phos [1]: 3.284 Mg/Dl
- Tbil [1]: 0.2074 Mg/Dl
- Tco2 [1]: 26.6842 Meq/L
- Tibc [1]: 363.263 µg/dL
- Tp [1]: 6.589 G/Dl
- Trig [1]: 78.7895 Mg/Dl
- Agap [2]: 18 Meq/L and 14 Meq/L and 15 Meq/L and 13 Meq/L and 17 Meq/L and 16 Meq/L
- Alb [2]: 4.2 G/Dl and 3.6 G/Dl and 3.9 G/Dl and 3.5 G/Dl and 4 G/Dl and 3.3 G/Dl and 2.9 G/Dl and 4.4 G/Dl and 3.8 G/Dl and 4.7 G/Dl and 4.3 G/Dl
- Alp [2]: 132 Iu/L and 94 Iu/L and 68 Iu/L and 54 Iu/L and 70 Iu/L and 117 Iu/L and 84 Iu/L and 65 Iu/L and 131 Iu/L and 60 Iu/L and 92 Iu/L and 150 Iu/L and 113 Iu/L and 97 Iu/L and 63 Iu/L and 80 Iu/L and 71 Iu/L and 89 Iu/L and 76 Iu/L
- Alt [2]: 39 Iu/L and 36 Iu/L and 27 Iu/L and 30 Iu/L and 87 Iu/L and 53 Iu/L and 95 Iu/L and 29 Iu/L and 76 Iu/L and 195 Iu/L and 45 Iu/L and 25 Iu/L and 70 Iu/L and 69 Iu/L and 18 Iu/L and 22 Iu/L
- Ast [2]: 34 Iu/L and 33 Iu/L and 18 Iu/L and 23 Iu/L and 28 Iu/L and 35 Iu/L and 32 Iu/L and 29 Iu/L and 21 Iu/L and 199 Iu/L and 392 Iu/L and 24 Iu/L and 25 Iu/L and 203 Iu/L and 16 Iu/L
- Bun [2]: 19 Mg/Dl and 14 Mg/Dl and 15 Mg/Dl and 17 Mg/Dl and 18 Mg/Dl and 16 Mg/Dl and 13 Mg/Dl and 38 Mg/Dl and 29 Mg/Dl and 11 Mg/Dl
- Ca [2]: 9.6 Mg/Dl and 9.1 Mg/Dl and 8.7 Mg/Dl and 9.3 Mg/Dl and 9.5 Mg/Dl and 9.2 Mg/Dl and 8.8 Mg/Dl and 8.5 Mg/Dl and 8.2 Mg/Dl and 9.7 Mg/Dl and 9.4 Mg/Dl and 10.1 Mg/Dl
- Chol [2]: 127 mg/dL and 152 mg/dL and 153 mg/dL and 132 mg/dL and 115 mg/dL and 168 mg/dL and 197 mg/dL and 162 mg/dL and 129 mg/dL and 141 mg/dL and 101 mg/dL and 85 mg/dL and 158 mg/dL and 126 mg/dL and 118 mg/dL and 151 mg/dL and 136 mg/dL and 110 mg/dL
- Ck [2]: 224 Iu/L and 407 Iu/L and 173 Iu/L and 274 Iu/L and 432 Iu/L and 485 Iu/L and 1737 Iu/L and 198 Iu/L and 506 Iu/L and 146 Iu/L and 14833 Iu/L and 15016 Iu/L and 403 Iu/L and 468 Iu/L and 205 Iu/L and 374 Iu/L and 6914 Iu/L and 290 Iu/L and 124 Iu/L and 171 Iu/L
- Cl [2]: 111 Meq/L and 110 Meq/L and 109 Meq/L and 107 Meq/L and 104 Meq/L and 108 Meq/L and 112 Meq/L
- Crea [2]: 0.7 Mg/Dl and 0.59 Mg/Dl and 0.62 Mg/Dl and 0.68 Mg/Dl and 0.76 Mg/Dl and 0.63 Mg/Dl and 0.77 Mg/Dl and 0.78 Mg/Dl and 0.71 Mg/Dl and 0.75 Mg/Dl and 1.07 Mg/Dl and 0.83 Mg/Dl and 0.58 Mg/Dl and 0.57 Mg/Dl and 0.74 Mg/Dl and 0.85 Mg/Dl and 0.66 Mg/Dl
- Fe [2]: 161 µg/dL and 147 µg/dL and 112 µg/dL and 151 µg/dL and 121 µg/dL and 108 µg/dL and 127 µg/dL and 95 µg/dL and 137 µg/dL and 110 µg/dL and 23 µg/dL and 34 µg/dL and 87 µg/dL and 133 µg/dL and 143 µg/dL and 32 µg/dL and 183 µg/dL and 103 µg/dL and 93 µg/dL
- Ggt [2]: 49 Iu/L and 44 Iu/L and 32 Iu/L and 38 Iu/L and 45 Iu/L and 53 Iu/L and 43 Iu/L and 48 Iu/L and 60 Iu/L and 51 Iu/L and 47 Iu/L and 30 Iu/L and 41 Iu/L and 67 Iu/L
- Glob [2]: 2.4 G/Dl and 3.1 G/Dl and 2.5 G/Dl and 2.6 G/Dl and 2.8 G/Dl and 2.9 G/Dl and 2.7 G/Dl and 3.3 G/Dl and 3.2 G/Dl and 2.3 G/Dl and 2.2 G/Dl
- Gluc [2]: 77 Mg/Dl and 54 Mg/Dl and 69 Mg/Dl and 48 Mg/Dl and 57 Mg/Dl and 50 Mg/Dl and 62 Mg/Dl and 56 Mg/Dl and 65 Mg/Dl and 75 Mg/Dl and 83 Mg/Dl and 64 Mg/Dl and 58 Mg/Dl and 73 Mg/Dl and 55 Mg/Dl and 63 Mg/Dl
- K [2]: 3.5 Meq/L and 4 Meq/L and 3.4 Meq/L and 3.3 Meq/L and 3.6 Meq/L and 3.7 Meq/L and 3.9 Meq/L and 2.9 Meq/L and 3.8 Meq/L and 4.1 Meq/L
- Ldh [2]: 508 Iu/L and 636 Iu/L and 140 Iu/L and 492 Iu/L and 348 Iu/L and 387 Iu/L and 493 Iu/L and 399 Iu/L and 281 Iu/L and 157 Iu/L and 1914 Iu/L and 2200 Iu/L and 274 Iu/L and 247 Iu/L and 194 Iu/L and 1688 Iu/L and 241 Iu/L and 292 Iu/L and 122 Iu/L
- Na [2]: 148 Meq/L and 145 Meq/L and 149 Meq/L and 146 Meq/L and 147 Meq/L
- Osmo [2]: 286 Mosm/Kg and 278 Mosm/Kg and 284 Mosm/Kg and 285 Mosm/Kg and 280 Mosm/Kg and 291 Mosm/Kg and 283 Mosm/Kg and 282 Mosm/Kg
- Phos [2]: 3.1 Mg/Dl and 3.5 Mg/Dl and 3.7 Mg/Dl and 2.5 Mg/Dl and 4.3 Mg/Dl and 4.5 Mg/Dl and 4.2 Mg/Dl and 3 Mg/Dl and 2.4 Mg/Dl and 2.3 Mg/Dl and 3.4 Mg/Dl and 3.2 Mg/Dl and 2.7 Mg/Dl and 3.3 Mg/Dl and 4.8 Mg/Dl and 4 Mg/Dl
- Tbil [2]: 0.17 Mg/Dl and 0.1 Mg/Dl and 0.12 Mg/Dl and 0.16 Mg/Dl and 0.45 Mg/Dl and 0.41 Mg/Dl and 0.15 Mg/Dl and 0.14 Mg/Dl and 0.84 Mg/Dl and 0.19 Mg/Dl
- Tco2 [2]: 23 Meq/L and 25 Meq/L and 26 Meq/L and 27 Meq/L and 30 Meq/L and 31 Meq/L and 28 Meq/L and 29 Meq/L and 24 Meq/L
- Tibc [2]: 337 µg/dL and 401 µg/dL and 353 µg/dL and 346 µg/dL and 309 µg/dL and 409 µg/dL and 351 µg/dL and 396 µg/dL and 388 µg/dL and 371 µg/dL and 299 µg/dL and 267 µg/dL and 357 µg/dL and 410 µg/dL and 392 µg/dL and 358 µg/dL and 376 µg/dL and 424 µg/dL and 347 µg/dL and 320 µg/dL
- Tp [2]: 6.5 G/Dl and 6.7 G/Dl and 6.4 G/Dl and 6.8 G/Dl and 6.3 G/Dl and 6.9 G/Dl and 6.6 G/Dl and 6 G/Dl and 6.1 G/Dl and 6.2 G/Dl
- Trig [2]: 66 Mg/Dl and 105 Mg/Dl and 88 Mg/Dl and 84 Mg/Dl and 101 Mg/Dl and 120 Mg/Dl and 124 Mg/Dl and 77 Mg/Dl and 61 Mg/Dl and 137 Mg/Dl and 20 Mg/Dl and 24 Mg/Dl and 50 Mg/Dl and 111 Mg/Dl and 31 Mg/Dl and 141 Mg/Dl and 27 Mg/Dl
- Agap [3]: 15.1667 Meq/L
- Alb [3]: 3.839 G/Dl
- Alp [3]: 98.7222 Iu/L
- Alt [3]: 44.8889 Iu/L
- Ast [3]: 27.4444 Iu/L
- Bun [3]: 14.2778 Mg/Dl
- Ca [3]: 9.439 Mg/Dl
- Chol [3]: 138.5 mg/dL
- Ck [3]: 456.778 Iu/L
- Cl [3]: 110.167 Meq/L
- Crea [3]: 0.7289 Mg/Dl
- Fe [3]: 141.278 µg/dL
- Ggt [3]: 49.6667 Iu/L
- Glob [3]: 3.072 G/Dl
- Gluc [3]: 63.0556 Mg/Dl
- K [3]: 3.633 Meq/L
- Ldh [3]: 249.389 Iu/L
- Na [3]: 148.5 Meq/L
- Osmo [3]: 284.778 Mosm/Kg
- Phos [3]: 2.8 Mg/Dl
- Tbil [3]: 0.1683 Mg/Dl
- Tco2 [3]: 26.8889 Meq/L
- Tibc [3]: 368.167 µg/dL
- Tp [3]: 6.906 G/Dl
- Trig [3]: 81.6111 Mg/Dl
- Agap [4]: 16 Meq/L and 17 Meq/L and 13 Meq/L and 15 Meq/L and 14 Meq/L
- Alb [4]: 3.9 G/Dl and 3.6 G/Dl and 3.8 G/Dl and 3.4 G/Dl and 3.5 G/Dl and 4.3 G/Dl and 4.1 G/Dl and 3.7 G/Dl and 4 G/Dl
- Alp [4]: 114 Iu/L and 109 Iu/L and 79 Iu/L and 146 Iu/L and 91 Iu/L and 93 Iu/L and 84 Iu/L and 108 Iu/L and 131 Iu/L and 72 Iu/L and 88 Iu/L and 136 Iu/L and 116 Iu/L and 65 Iu/L and 75 Iu/L and 90 Iu/L
- Alt [4]: 46 Iu/L and 63 Iu/L and 42 Iu/L and 89 Iu/L and 50 Iu/L and 33 Iu/L and 67 Iu/L and 24 Iu/L and 27 Iu/L and 69 Iu/L and 29 Iu/L and 22 Iu/L and 35 Iu/L and 40 Iu/L and 55 Iu/L and 44 Iu/L and 56 Iu/L
- Ast [4]: 40 Iu/L and 24 Iu/L and 28 Iu/L and 29 Iu/L and 25 Iu/L and 26 Iu/L and 33 Iu/L and 34 Iu/L and 20 Iu/L and 27 Iu/L and 15 Iu/L and 30 Iu/L and 23 Iu/L
- Bun [4]: 15 Mg/Dl and 16 Mg/Dl and 13 Mg/Dl and 12 Mg/Dl and 14 Mg/Dl and 11 Mg/Dl and 20 Mg/Dl
- Ca [4]: 9.7 Mg/Dl and 9.6 Mg/Dl and 9.1 Mg/Dl and 9.3 Mg/Dl and 9 Mg/Dl and 9.2 Mg/Dl and 10 Mg/Dl and 9.8 Mg/Dl and 9.5 Mg/Dl
- Chol [4]: 180 mg/dL and 175 mg/dL and 134 mg/dL and 115 mg/dL and 124 mg/dL and 127 mg/dL and 158 mg/dL and 141 mg/dL and 125 mg/dL and 122 mg/dL and 138 mg/dL and 154 mg/dL and 140 mg/dL and 113 mg/dL and 133 mg/dL and 148 mg/dL and 151 mg/dL and 119 mg/dL
- Ck [4]: 427 Iu/L and 338 Iu/L and 199 Iu/L and 479 Iu/L and 314 Iu/L and 233 Iu/L and 738 Iu/L and 1619 Iu/L and 353 Iu/L and 416 Iu/L and 382 Iu/L and 210 Iu/L and 648 Iu/L and 548 Iu/L and 237 Iu/L and 332 Iu/L and 197 Iu/L and 552 Iu/L and 206 Iu/L
- Cl [4]: 110 Meq/L and 109 Meq/L and 111 Meq/L and 108 Meq/L and 107 Meq/L and 113 Meq/L and 112 Meq/L
- Crea [4]: 0.56 Mg/Dl and 0.91 Mg/Dl and 0.71 Mg/Dl and 0.69 Mg/Dl and 0.85 Mg/Dl and 0.97 Mg/Dl and 0.62 Mg/Dl and 0.77 Mg/Dl and 0.78 Mg/Dl and 0.74 Mg/Dl and 0.76 Mg/Dl and 0.58 Mg/Dl and 0.65 Mg/Dl and 0.64 Mg/Dl and 0.68 Mg/Dl
- Fe [4]: 185 µg/dL and 145 µg/dL and 129 µg/dL and 168 µg/dL and 126 µg/dL and 124 µg/dL and 150 µg/dL and 181 µg/dL and 159 µg/dL and 113 µg/dL and 170 µg/dL and 84 µg/dL and 111 µg/dL and 169 µg/dL and 125 µg/dL and 154 µg/dL and 155 µg/dL
- Ggt [4]: 46 Iu/L and 64 Iu/L and 42 Iu/L and 53 Iu/L and 58 Iu/L and 67 Iu/L and 48 Iu/L and 30 Iu/L and 52 Iu/L and 31 Iu/L and 40 Iu/L and 35 Iu/L and 82 Iu/L and 37 Iu/L and 50 Iu/L and 65 Iu/L
